In patent publication US20100321430A1, “INK COMPOSITION FOR INK JET RECORDING” (priority 2009, published 2010):

Assay: Solubility of 1,2-octanediol in aqueous solution containing an alcohol solvent
Assay type: physicochemical
Conditions: for ability to dissolve 1,2-octanediol compared with HED: aqueous solution containing 10% by weight 1,2-octanediol and 10% by weight 1,2-hexanediol, FIGURE
Experimental: An aqueous solution containing 10% by weight of 1,2-octanediol, which is a water-insoluble alkanediol, was prepared. […] Therefore, the aqueous solution was cloudy.
Five alcohol solvents were each added to 10 g of the aqueous solution until the aqueous solution became transparent. The five alcohol solvents were 1,6-hexanediol (hereinafter referred to as 1,6-HED), 3-methyl-1,5-pentanediol (hereinafter referred to as 3 MPED), 1,5-pentanediol (hereinafter referred to as 1,5-PED), 1,2-hexanediol (hereinafter referred to as HED), and 2,2′-dimethylpropanediol (hereinafter referred to as 2 MPRD).
Another aqueous solution containing 10% by weight of 1,2-octanediol and 10% by weight of 1,2-hexanediol, which is a water-soluble alkanediol, was prepared. The five alcohol solvents were added to this aqueous solution in the same manner as described above until this aqueous solution became transparent.

OCCCCCO [1,5-PED, 1,5-pentanediol]
ability to dissolve 1,2-octanediol compared with HED: more capable of dissolving 1,2-octanediol

CC(C)(CO)CO [2 MPRD, 2,2′-dimethylpropanediol]
ability to dissolve 1,2-octanediol compared with HED: more capable of dissolving 1,2-octanediol

OCCCCCCO [1,6-HED, 1,6-hexanediol]
ability to dissolve 1,2-octanediol compared with HED: more capable of dissolving 1,2-octanediol

CC(CCO)CCO [3 MPED, 3-methyl-1,5-pentanediol]
ability to dissolve 1,2-octanediol compared with HED: more capable of dissolving 1,2-octanediol

CCCCCCC(O)CO (centres unmarked) [1,2-octanediol]
solubility in water (aqueous solution containing 10% by weight): not completely dissolved
